Laboratory results taken from patent US6586478B2, “Methods and compositions for improving sleep” (Cellegy Canada, priority 2000, dated 2003).

Tests used:
[1] = tested on: sleep disorders including PLMS; test: Example 1, Subject 1: person with sleep disorders including PLMS; format: in vivo, human; settings: Subject 1, history before the GTN patch
Experimental: The subject was a person with a history of sleep disorders including PLMS for at least 4 years. Over this period the subject had five visits to a sleep laboratory, which confirmed their diagnosis of PLMS, and through which various treatments were devised. These included drug therapies with PAXIL/WELLBUTRIN, CLOMIPRAMINE, IMOVANE, DESIPPAMINE, ZOLOFT, TEMAZEPAM, TRYPTAN, and FLUVOXAMINE.
At this point, the subject was administered a 1.65 cm^2 GTN patch as described above in reference to Table 4. The patch was applied just before retiring at night. This was repeated for three consecutive nights. […] On the fourth night, the subject applied a 1.1 cm^2 GTN patch, and on the fifth night, a 0.825 cm^2 GTN patch.

[2] = Plasma levels of nitroglycerin delivered from transdermal patches; format: in vivo
Experimental: (§1) 3M MINITRAN transdermal nitroglycerin patches of 10 cm^2 and 20 cm^2 areas deliver plasma levels of 102 pg/mL and between 129 pg/mL and 310 pg/mL, respectively. The 3.3 cm^2 patch, with a total loading of 9 mg of nitroglycerin in each patch, has a mean rate of drug delivery of about […]. The two smaller patches (1.65 cm^2 and 0.825 cm^2) used in the studies described herein had areas of one half and one fourth the 3.33 cm^2 patch. Based on the ratios of patch surface area and assuming linearity in the rates of drug delivery, the estimated rates of delivery and extrapolated values of plasma levels of nitroglycerin for the three low or microdose patches are given in Table 1.

[3] = Rate of drug delivery (release) from transdermal nitroglycerin patches; settings: after 8 hours, 0.83 cm^2 patch
Experimental: as §1
Nitroglycerin for the treatment of RLS, PLMS and sleep symptoms was provided in single dose transdermal patches packaged in individual foil pouches. Each single dose transdermal patch has a surface area of 0.83 cm^2, contains 2.25 mg of nitroglycerin, and releases the nitroglycerin at a rate of 0.025 mg/hour (0.75 mg/cm^2/24 hours). After 8 hours 85% of the nitroglycerin remains entrained in the adhesive substrate of the transdermal patch.

Row | SMILES | success of earlier drug therapies in treating the symptoms of the sleep disorder [1] | further results
1 | COCCCC/C(=N\OCCN)c1ccc(C(F)(F)F)cc1 [FLUVOXAMINE] | None of the drug therapies were successful | –
2 | CN[C@H]1CC[C@@H](c2ccc(Cl)c(Cl)c2)c2ccccc21 [ZOLOFT] | None of the drug therapies were successful | –
3 | CNCCCN1c2ccccc2CCc2ccccc21 [DESIPPAMINE] | None of the drug therapies were successful | –
4 | CN(C)CCCN1c2ccccc2CCc2ccc(Cl)cc21 [CLOMIPRAMINE] | None of the drug therapies were successful | –
5 | CN1CCN(C(=O)OC2c3nccnc3C(=O)N2c2ccc(Cl)cn2)CC1 (centres unmarked) [IMOVANE] | None of the drug therapies were successful | –
6 | CN1C(=O)C(O)N=C(c2ccccc2)c2cc(Cl)ccc21 (centres unmarked) [TEMAZEPAM, temazepam] | None of the drug therapies were successful | –
7 | O=[N+]([O-])OCC(CO[N+](=O)[O-])O[N+](=O)[O-] [Nitroglycerin, nitroglycerin] | – | Plasma Level ([2]; 0.825 cm^2 patch, extrapolated from larger-size patches assuming linearity): 9^3 pg/mL; Plasma Level ([2]; 1.65 cm^2 patch, extrapolated from larger-size patches assuming linearity): 17^3 pg/mL; Plasma Level ([2]; 3.33 cm^2 patch, extrapolated from larger-size patches assuming linearity): 34^3 pg/mL; Plasma Level ([2]; 10 cm^2 patch): 102^1 pg/mL; nitroglycerin remaining entrained in the adhesive substrate of the patch [3]: 85%
